The values below come from patent US20230266307A1, “BIOINFORMATICS” (University of Helsinki, priority 2020, published 2023).

No end group written: not given here.

In assay [1] the test system is JY cells. In words: in vitro killing assay, real time cytolysis of JY cells by peptide-pulsed CD8+ T cells. The format is cell-based, human. Particulars: for specific cytolysis: CD8+ T cells from HLA-matched PBMCs pulsed with the peptide, coculture with JY cells. The method, then:
Next, in order to determine the role of the peptides identified, a gene ontology (GO) term enrichment analysis was performed on our list of 9mer binder source proteins. We observed an enrichment in nuclear and intracellular proteins, mainly those interacting with DNA, RNA or involved in catabolic activity. […] To account for nonspecific cytotoxicity due to the effector cells per se, unstimulated PBMCs were used as a control. Real time cytolysis was then monitored.

The test system of assay [2] is B16F10 cells. In words: intratumoral PeptiCRAd treatment of established B16F10 tumors. Format: in vivo, C57BL/6J mice. Here is the method:
(§1) A: Scheme of the animal experiment: 4 groups of C57BL mice were formed for each tumor cell line to be tested. Mice were subcutaneously injected either with B16-OVA or B16F10 cells at day 0. Once the tumor was palpable, mice were treated with saline solution (Mock group), uncoated adenovirus (Uncoated Virus group), adenovirus coated with pool of viral peptides homologous to TRP2 (Viral PeptiCRAd, VPC) or adenovirus coated with TRP2 peptide (TRP2 PeptiCRAd, TPC).
(§2) All PeptiCRAd complexes described in this work were prepared by mixing Adenoviruses and polyK-tailed peptides according to the following protocol: 1×10^9 vp(viral particles) were mixed with 20 ug poly-K tailed peptides (resuspended in water); after vortexing, the mixture was incubated at room temperature for 15 min; PBS was added, after the incubation, up to the injection volume (50 uL/mouse), successively, the solution was vortexed again and used for assays or animal injections. For the TRP2-PeptiCRAd, 1×10^9 vp were mixed with 20ug of 6K-TRP2180-188 peptide, while the Viral-PeptiCRAd was prepared using 1×10^9 vp mixed with 5 ug of each viral 6K-peptide homologous for […]. […]
(§3) Tumor growth was followed with a digital caliper measuring two dimensions of the tumor. Successively, the volume was mathematically calculated according to the following formula: […]

In assay [3] the test system is B16-OVA cells. In words: intratumoral PeptiCRAd treatment of established B16-OVA tumors. The format is in vivo, C57BL/6J mice. To be noted: B16OVA. The method, then: as §1, §2, §3
For assay [4], the system named is ccRCC PDO. In words: killing assay with peptide-pulsed CD8+ T cells on ccRCC patient-derived organoids. Format: cell-based, human. From the text: We focused our analysis on ccRCC samples. We used transcriptomics levels to select putative tumour antigens using PBMC and healthy kidney tissue as reference sets. Next, PBMCs from healthy volunteers were pulsed with the selected peptides, and CD8+ T cells isolated from those cells were used in the assay.
Finally, we sought to investigate the recall T cells response in the ccRCC patient. To this end, unfractionated PBMCs derived from the patient were in vitro stimulated with the peptide EVAQPGPSNR whereas unstimulated PBMCs were adopted as control. The derived CD8+T cells were then added to the ccRCC PDO showing about a 7% increase in killing activity compared to the control group.

In assay [5] the target is HLA-I complexes of the human B-cell lymphoblastoid cell line JY (human). Briefly: cell-based or functional assay.

Take “KVLEYVIKV [HLA-I peptide from JY cells, gene name MAGEA1]”: in assay [1], the specific cytolysis result is on record as “about 10%”.

“TRP2-PeptiCRAd: adenovirus coated with 6K-TRP2180-188 peptide (KKKKKKSVYDFFVWL; also: coated on adenovirus; UniProt P29812 180-188, looked up, fragment)”: the tumor progression entry in assay [2] (B16F10, intratumoral, compared to saline buffer or uncoated virus) was “significantly reduced the tumor progression”; in assay [3] (intratumoral, compared to saline buffer or uncoated virus) it was “significantly reduced the tumor progression”. Besides, the number of responders result is “significantly higher number of responders” in assay [2] (B16F10, tumor volume below the median at endpoint) and “significantly higher number of responders” in assay [3] (tumor volume below the median at endpoint).

As to “EVAQPGPSNR (HSPG2 gene) [peptide from ccRCC organoids, gene name HSPG2]”, the specific cytolysis result in assay [4] (CD8+ T cells from PBMCs of healthy volunteers pulsed with the peptide, ccRCC samples) is listed as “about 10%”. The “increase in killing activity compared to the control group” value in assay [4] (CD8+ T cells from the ccRCC patient's PBMCs stimulated with the peptide, added to ccRCC PDO, control unstimulated PBMCs) was around 7%.

In the case of “QLVDIIEKV [HLA-I peptide from JY cells, gene name PSME3]”, in assay [1], the specific cytolysis result is recorded as “about 10%”.

“ILDKKVEKV [HLA-I peptide from JY cells, gene name HSP90AB3P]” came in with a specific cytolysis in assay [1] of 15%. Moreover, the “specific cytolysis, comparison among the tested peptides” value in assay [1] (JY cells, CD8+ T cell-dependent killing) is recorded as “higher percentage of specific cytolysis”.

QLVDIIEKV (not fully specified) [… (gene name PSME3)]: the specific cytolysis of JY cells by CD8+ T cells pulsed with the peptide in assay [5] was determined as 10%.

In turn, KVLEYVIKV [… (gene name MAGEA1)] came in with a specific cytolysis of JY cells by CD8+ T cells pulsed with the peptide in assay [5] of 10%.

Take ILDKKVEKV [… (gene name HSP90AB3P)]: the specific cytolysis of JY cells by CD8+ T cells pulsed with the peptide in assay [5] was 15%.
